Measurements published in US20240024291A1, “Uses of Dihydroorotate Dehydrogenase Inhibitors” (University of Maryland, Baltimore, priority 2022, published 2024).

Assays:
[1] = test system: Mayo39 glioblastoma neurosphere line; assay: CellTiter-Glo in vitro proliferation assay; assay type: cell-based; details: Homo sapiens
Method: A Biospherix X3, hypoxic incubation system, was maintained at 37° C., 1% 02, 5% CO2, and 94% N2 (Biospherix, Ltd—Parish, NY) to conduct in vitro hypoxic experiments. Cells were plated, then incubated in normoxia overnight before transferring the culture dishes to hypoxia for the duration indicated in the main text.
Glioblastoma neurosphere lines were plated in 96-well plates at 25,000 cells per well in […] of media and treated with compound 1 in the presence or absence of 100 μM uridine. Cell Titer-Glo® Luminescent Cell Viability Assay (Promega, Madison, WI, USA) was performed 72 hours after treatment. Luminescence was determined using a Cytation 5 reader and Gen5 software package (BioTek, Winooski, VT, USA).
The compound's efficacy was examined against a collection of genetically diverse patient-derived GSC lines in vitro. The IC50 profiles of compound 1 in the seven GSC lines tested were established using the CellTiter-Glo® reagent and calculated with GraphPad software.

[2] = test system: 08-387 glioblastoma neurosphere line; assay: gH2AX foci immunofluorescence (DNA damage); assay type: cell-based, human; details: IC50 dose
Method: (§1) The 913, 3691, 08-387, and 1079 glioblastoma neurosphere-derived cells (1×10^4) were treated with DMSO (control) or IC50 concentration of compound 1 and cultured in either normoxia or hypoxia for 48 hours. Cells were spun with a Milles Scientific Cyto-Tek Model 4325 cytocentrifuge slide centrifuge onto Superfrost slides (VWR-48311-703) at 1500 rpm for 5 minutes. Slides were rinsed briefly with Hanks Balanced Salt Solution (HBSS), fixed in 4% paraformaldehyde in PBS, and rinsed with HBSS twice to remove any residual fixative. Cells were permeabilized with PBS containing 0.1% Triton-X100 (PBST) for 15 minutes, then blocked for 1 hour with PBST with 5% BSA. The slides were incubated overnight at 4° C. with Phospho-H2AX antibody (see above), diluted 1:250 in PBST containing 5% BSA. Slides were rinsed three times with HBSS, then incubated for one hour at room temperature with donkey anti-mouse, Alexa488-conjugated, secondary antibody diluted 1:500 in PBST containing 5% BSA (see above). Cell nuclei were counterstained with DAPI (150 nM), and the slides were cover-slipped with Prolong antifade mounting media (Molecular Probes #P36961). Using a 40X objective, at least ten random high-power fields, per condition, were captured with a Nikon W-1 Spinning Disk confocal microscope through the University of Maryland Baltimore CIBR confocal facility. The number of yH2AX-positive foci per cell was counted using ImageJ (unige.ch/medecine/bioimaging/files/3714/1208/5964/CellCounting.pdf). Individual cells with ten or more foci were considered positive for significant DNA damage. At least 300 cells were analyzed in each sample.
(§2) Reduced de novo pyrimidine synthesis mediated by MCT4-depletion promoted an accumulation of DNA damage (29). To test and quantify the magnitude of compound 1 effect on DNA damage, the four compound 1 responsive GBM neurosphere lines 913, 3691, 08-387, and 1079 were cultured in normoxia (21% oxygen) and hypoxia (1% oxygen) with a model-specific IC50 dose of compound 1 for 48 hours followed by immunocytochemical analysis of the DNA-damage marker g-H2AX. Table 1 is a summary of IC50 (nM or mM) values established for the seven glioblastoma neurosphere lines

[3] = test system: 1079 glioblastoma neurosphere line; assay: gH2AX foci immunofluorescence (DNA damage); assay type: cell-based, human; details: IC50 dose
Method: as §1, §2

[4] = test system: 3691 glioblastoma neurosphere line; assay: gH2AX foci immunofluorescence (DNA damage); assay type: cell-based, human; details: IC50 dose
Method: as §1, §2

[5] = test system: 913 glioblastoma neurosphere line; assay: gH2AX foci immunofluorescence (DNA damage); assay type: cell-based, human; details: IC50 dose
Method: as §1, §2

[6] = test system: 913 PIP-FUCCI reporter cells; assay: PIP-FUCCI in vitro cell cycle assay; assay type: cell-based, human; details: for percentage of cells in the S phase: 48 hours (DMSO 20%)
Method: To monitor cell cycle progression, 913 glioblastoma neurosphere-derived cells expressing pLenti-PGK-Neo-PIP-FUCCI were first cloned. pLenti-PGK-Neo-PIP-FUCCI was from Jean Cook (Addgene plasmid #118616; n2t.net/addgene:118616; RRID:Addgene_118616) (52). Cells were then treated with either 0, 10 nM, or 100 nM compound 1 for 48 hours, stained with 1 mg/mL Hoechst for 2 hours, and visualized by direct fluorescence microscopy. A twenty-four-hour treatment with […] of the DNA replication inhibitor Aphidicolin was used as a positive control for S-phase arrest. A collection of five images per well, each set containing at least 10,000 cells, was captured for each treatment. Each treatment was performed in technical quadruplicates, and each experiment was repeated twice on different days. Images were acquired using Cytation 5 plate reader (BioTek, Winooski, VT, USA) and scored using Gen5 software. Cell cycle phases were determined by x/y plot of mVenus and mCherry intensities per nucleus and gating boundaries on the Aphidicolin control.
It has been reported that depletion of pyrimidine nucleotides leads to incomplete DNA replication and elicits a stress response that blocks cell cycle progression. […] The original design was developed in 2008 by Miyawaki and colleagues (51).

[7] = test system: 08-387 neurosphere line transduced with EGFRvIll or GFP; assay: Resistance assay, EGFRvIll or GFP transduced cells; assay type: cell-based, human; design: dose or concentration left out as unconfirmed
Method: (§3) Ten thousand 08-387 or 913 glioblastoma cells per well were seeded in a 96 well plate. Post 24 hr plating, 08-387 and 913 cells were treated with a varying dosage of compound 1 or with a varying dosage of gemcitabine alone or with 100 nM of compound 1. Post 72 hr of treatment, cell viability was calculated on Alamar blue absorbance reading.
(§4) The pLV[Expressior]-mCherry:T2A:Hygro-EF1A>Luc2 (Addgene Plasmid #174665) and pLV[Exp]-Bsd-EFS>EGFRvIll:T2A:TurboGFP (Addgene Plasmid #189841) lentivirus plasmids were designed by us and constructed by VectorBuilder. These plasmids are available at Addgene.
(§5) To further evaluate the potential role of EGFR in compound 1 resistance, the 913 and 08-387 neurosphere lines were transduced with lentiviruses encoding EGFRvIll or GFP (as control) and these neurospheres were challenged with a relatively high dose of 1 mM compound 1.

[8] = test system: 913 neurosphere line transduced with EGFRvIll or GFP; assay: Resistance assay, EGFRvIll or GFP transduced cells; assay type: cell-based, human; design: dose or concentration left out as unconfirmed
Method: as §3, §4, §5

Structure (SMILES): CCn1c(CO)nn(-c2cc(O[C@@H](C)C(F)(F)F)c(C(=O)Nc3c(F)cccc3Cl)cc2F)c1=O [Compound 1, N-(2-chloro-6-fluorophenyl)-4-[4-ethyl-4,5-dihydro-3-(hydroxymethyl)-5-oxo-1H-1,2,4-triazol-1-yl]-5-fluoro-2-[(1S)-2,2,2-trifluoro-1-methylethoxy]-benzamide]
- IC50 ([1]; 72 h, Mayo39, hypoxia): 153 µM
- IC50 ([1]; 72 h, Mayo39, normoxia): 182 µM
- IC50 ([1]; Mayo39): 182 µM
- nuclei with multiple gH2AX-positive foci ([2]; 08-387, hypoxia, 48 hours (control 13.6%)): 32%
- nuclei with multiple gH2AX-positive foci ([2]; 08-387, normoxia, 48 hours (control 11.6%)): 30%
- g-H2AX positivity ([3]; 1079, hypoxia, 48 hours (control 16.2%)): 38.4%
- g-H2AX positivity ([3]; 1079, normoxia, 48 hours (control 14.8%)): 32.4%
- g-H2AX positivity ([4]; 3691, hypoxia, 48 hours (control 11.3%)): 44.2%
- g-H2AX positivity ([4]; 3691, normoxia, 48 hours (control 9%)): 46%
- nuclei with multiple gH2AX-positive foci ([5]; 913, hypoxia, 48 hours (control 2.3%)): 23%
- nuclei with multiple gH2AX-positive foci ([5]; 913, normoxia, 48 hours (control 11%)): 89%
- percentage of cells in the S phase ([6]; 10 nM): 70%
- percentage of cells in the S phase ([6]; 100 nM): 64%
- cell cycle effects with uridine supplementation ([6]; uridine supplementation): completely blocked
- surviving cell fraction ([7]; 08-387 EGFRvIll): 36.7%
- surviving cell fraction ([7]; 08-387 GFP (control)): 4%
- surviving cell fraction ([8]; 913 EGFRvIll): 55.2%
- surviving cell fraction ([8]; 913 GFP (control)): 27.9%
